Source: ChEMBL document CHEMBL5728527, “Naphthyridines as inhibitors of HPK1” (2021)
Several values for one entry are separate records, joined by “and”; a condition that tells them apart may be missing. Identical values can stand only once.

Molecular target: Mitogen-activated protein kinase kinase kinase kinase 1 (Homo sapiens, UniProt Q92918)
Test: Binding Assay: Lanth: For the binding assay, 4 ul 2×HPK1 and Eu-anti-GST antibody were added to each well of the assay plate using a Multidrop reagent dispenser. The solutions were incubated in a 23 C incubator for 1 h. To each well of the assay plate was added 4 ul 2× Tracer-222 using a Multidrop reagent dispenser. The solutions were again incubated in a 23 C incubator for 1 h. The results of the assay were read using an Envision plate reader with the following parameters: TR_FRET, 340ex/615 and 665em; 100 usec Delay; and 200 usec integration.

Mitogen-activated protein kinase kinase kinase kinase 1, sequence (Q92918 whole entry): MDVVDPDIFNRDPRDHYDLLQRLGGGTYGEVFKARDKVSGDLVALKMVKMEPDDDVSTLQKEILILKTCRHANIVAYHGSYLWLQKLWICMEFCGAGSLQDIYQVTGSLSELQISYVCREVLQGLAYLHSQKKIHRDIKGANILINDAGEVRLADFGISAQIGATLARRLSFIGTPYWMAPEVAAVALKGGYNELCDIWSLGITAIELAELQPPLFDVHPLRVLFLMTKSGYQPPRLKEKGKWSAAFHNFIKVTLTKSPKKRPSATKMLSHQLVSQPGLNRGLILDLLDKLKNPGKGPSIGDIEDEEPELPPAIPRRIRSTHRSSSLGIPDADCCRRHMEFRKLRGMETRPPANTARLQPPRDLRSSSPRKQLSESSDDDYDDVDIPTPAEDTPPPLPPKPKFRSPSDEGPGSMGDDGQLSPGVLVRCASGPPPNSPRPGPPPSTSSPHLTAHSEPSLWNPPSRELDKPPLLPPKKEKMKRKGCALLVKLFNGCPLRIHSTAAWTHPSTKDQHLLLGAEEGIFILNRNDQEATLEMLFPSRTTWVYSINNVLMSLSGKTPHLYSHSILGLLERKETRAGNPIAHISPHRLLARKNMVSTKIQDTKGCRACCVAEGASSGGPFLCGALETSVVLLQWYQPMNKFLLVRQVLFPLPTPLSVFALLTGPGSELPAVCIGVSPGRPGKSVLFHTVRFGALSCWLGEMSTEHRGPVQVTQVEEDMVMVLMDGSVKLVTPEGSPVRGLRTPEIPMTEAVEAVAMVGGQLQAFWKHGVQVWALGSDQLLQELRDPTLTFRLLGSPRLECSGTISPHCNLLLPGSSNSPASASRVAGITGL

Row | SMILES | Ki
1 | CCc1cc(=O)n(C)cc1-c1cc2cc(NC(=O)[C@@H]3C[C@@H]3F)ncc2c(N)n1 (racemic) | 440 nM
2 | Cc1ccncc1-c1cc2cc(NC(=O)[C@H]3C[C@@H]3c3ncccn3)ncc2c(N)n1 (racemic) | 10 nM
3 | COCCc1ccncc1-c1cc2cc(NC(=O)[C@H]3C[C@@H]3C#N)ncc2c(N)n1 (racemic) | 21.2 nM
4 | Cc1cc(C(=O)N(C)C)ncc1-c1cc2cc(NC(=O)[C@H]3C[C@@H]3c3cnn(C)c3)ncc2c(N)n1 (racemic) | 6.14 nM
5 | CCC1CCCN1c1cc2cc(NC(=O)[C@H]3C[C@H]3F)ncc2c(N)n1 (mixture of isomers) | 172 nM
6 | CCc1ccncc1-c1cc2cc(NC(=O)[C@@H]3C[C@H]3C(=O)C3CC(O)C3)ncc2c(N)n1 (mixture of isomers) | 163 nM
7 | CCc1ccncc1-c1cc2cc(NC(=O)[C@H]3C[C@@H]3C#N)ncc2c(N)n1 | 1.31 nM and 0.583 nM
8 | CCC1CCCN1c1cc2cc(NC(=O)[C@@H]3C[C@@H]3F)ncc2c(N)n1 (mixture of isomers) | 11.7 nM and 10.3 nM
9 | Cc1cc(-c2ccn(C)n2)ncc1-c1cc2cc(NC(=O)[C@H]3C[C@@H]3c3cnn(C)c3)ncc2c(N)n1 | 2.26 nM
10 | Cc1ccncc1-c1cc2cc(NC(=O)[C@@H]3C[C@]34CCNC4)ncc2c(N)n1 (racemic) | 6.8 nM
11 | CCc1ccncc1-c1cc2cc(NC(=O)[C@@H]3C[C@H]3C#N)ncc2c(N)n1 (single isomer, unassigned) | 7.36 nM
12 | N#C[C@@H]1C[C@H]1C(=O)Nc1cc2cc(-c3cnccc3C(F)(F)F)nc(N)c2cn1 (racemic) | 6.49 nM
13 | CCc1ccncc1-c1cc2cc(NC(=O)[C@H]3C[C@H]3C#N)ncc2c(N)n1 (single isomer, unassigned) | 3.64 nM
14 | Cc1ccncc1-c1cc2cc(NC(=O)[C@@H]3C[C@@H]3C)ncc2c(N)n1 (racemic) | 2.3 nM
15 | CCc1ccncc1-c1cc2cc(NC(=O)[C@@H]3C[C@@H]3C(N)=O)ncc2c(N)n1 (racemic) | 25.8 nM
16 | Cc1[nH]ncc1-c1cc2cc(NC(=O)[C@@H]3C[C@H]3C(F)(F)F)ncc2c(N)n1 (racemic) | 16 nM
17 | Cc1cc(C)c(-c2cc3cc(NC(=O)[C@@H]4C[C@H]4C#N)ncc3c(N)n2)cc1C(N)=O (racemic) | 89 nM
18 | Cn1cc([C@H]2C[C@@H]2C(=O)Nc2cc3cc(-c4cnc5c(=O)n(C)ncc5c4)nc(N)c3cn2)cn1 (racemic) | 3.14 nM
19 | Cc1ccncc1-c1cc2cc(NC(=O)[C@@H]3C[C@H]3CN)ncc2c(N)n1 (racemic) | 2.4 nM
20 | Cc1c(-c2cc3cc(NC(=O)[C@H]4C[C@@H]4C#N)ncc3c(N)n2)cncc1C(F)F (racemic) | 39 nM
21 | Cc1cc(-n2cccn2)ncc1-c1cc2cc(NC(=O)[C@H]3C[C@@H]3c3cnn(C)c3)ncc2c(N)n1 | 3.3 nM
22 | Cc1ccncc1-c1cc2cc(NC(=O)[C@H]3[C@@H]4COC[C@@H]43)ncc2c(N)n1 (single isomer, unassigned) | 4.9 nM
23 | Cc1ccnc(C)c1-c1cc2cc(NC(=O)[C@@H]3C[C@@H]3F)ncc2c(N)n1 (racemic) | 5.03 nM
24 | Cc1ncc(-c2cc3cc(NC(=O)[C@@H]4C[C@H]4C#N)ncc3c(N)n2)n1C (relative stereo) | 18.9 nM
25 | Cc1cc2[nH]cnc2cc1-c1cc2cc(NC(=O)[C@@H]3C[C@@H]3F)ncc2c(N)n1 (racemic) | 7.9 nM

Row | SMILES | Ki
26 | Cc1ccncc1-c1cc2cc(NC(=O)C(C)C)ncc2c(N)n1 | 29.8 nM
27 | Cc1ccncc1-c1cc2cc(NCC3CC3(F)F)ncc2c(N)n1 (racemic) | 61.3 nM
28 | Cc1c[nH]c(=O)cc1-c1cc2cc(NC(=O)[C@@H]3C[C@@H]3F)ncc2c(N)n1 (racemic) | 6.5 nM
29 | Cc1ccncc1-c1cc2cc(NC(=O)[C@H]3[C@H](C)[C@@H]3CC#N)ncc2c(N)n1 | 6.01 nM
30 | CC(O)Cc1ccncc1-c1cc2cc(NC(=O)[C@H]3C[C@@H]3C#N)ncc2c(N)n1 (mixture of isomers) | 7.28 nM
31 | Cc1ccncc1-c1cc2cc(NC(=O)[C@@H]3C[C@H]3C#N)ncc2c(N)n1 (single isomer, unassigned) | 4.06 nM
32 | Cc1ccncc1-c1cc2cc(NC(=O)[C@@H]3C[C@H]3F)ncc2c(N)n1 (single isomer, unassigned) | 2.8 nM
33 | CC(=O)OC[C@]1(C)C[C@@H]1C(=O)Nc1cc2cc(-c3cnccc3C)nc(N)c2cn1 (racemic) | 14.6 nM
34 | CCc1cc(OC)ncc1-c1cc2cc(NC(=O)[C@@H]3C[C@@H]3F)ncc2c(N)n1 (racemic) | 4.88 nM
35 | Cc1ccncc1-c1nc(N)c2cnc(NC(=O)[C@H]3C[C@@H]3C#N)cc2c1F (racemic) | 4.4 nM
36 | Cn1cc([C@H]2C[C@@H]2C(=O)Nc2cc3cc(-c4cnc(N)c(C(F)(F)F)c4)nc(N)c3cn2)cn1 (racemic) | 11.8 nM
37 | Cc1cnc(C#N)cc1-c1cc2cc(NC(=O)[C@@H]3C[C@@H]3F)ncc2c(N)n1 (racemic) | 22.5 nM
38 | Cc1cc(C(=O)NCC(F)(F)F)ccc1-c1cc2cc(NC(=O)[C@@H]3C[C@H]3C#N)ncc2c(N)n1 (relative stereo) | 8.1 nM
39 | Cc1cnc(CO)cc1-c1cc2cc(NC(=O)[C@@H]3C[C@@H]3F)ncc2c(N)n1 (racemic) | 18.3 nM
40 | COC1CN([C@H]2C[C@@H]3[C@H](C2)[C@H]3C(=O)Nc2cc3cc(-c4cnccc4C)nc(N)c3cn2)C1 | 2.14 nM
41 | Cc1cc(C(C)(C)O)ncc1-c1cc2cc(NC(=O)[C@@H]3C[C@@H]3F)ncc2c(N)n1 (racemic) | 41.7 nM
42 | Cc1nn(C)c(C)c1-c1cc2cc(NC(=O)[C@H]3C[C@@H]3C(F)(F)F)ncc2c(N)n1 (racemic) | 12 nM
43 | Cc1ncc(N)c(C)c1-c1cc2cc(NC(=O)[C@@H]3C[C@H]3C)ncc2c(N)n1 (racemic) | 3.2 nM
44 | C[C@@H]1C[C@H]1C(=O)Nc1cc2cc(-c3cnn(C)c3)nc(N)c2cn1 (racemic) | 1.85 nM
45 | CC(=O)OC[C@@]1(C)C[C@@H]1C(=O)Nc1cc2cc(-c3cnccc3C)nc(N)c2cn1 (racemic) | 17.1 nM
46 | Cn1ccc2cncc(-c3cc4cc(NC(=O)[C@@H]5C[C@@H]5F)ncc4c(N)n3)c21 (racemic) | 101 nM
47 | Cc1cc2c(cc1-c1cc3cc(NC(=O)[C@@H]4C[C@@H]4F)ncc3c(N)n1)CC(=O)N2 (racemic) | 2.81 nM
48 | CCc1ccncc1-c1cc2cc(NC(=O)[C@@H]3C[C@@H]3C#N)ncc2c(N)n1 | 10.6 nM and 3.21 nM
49 | CCc1cc(N)ncc1-c1cc2cc(NC(=O)[C@@H]3C[C@@H]3F)ncc2c(N)n1 (racemic) | 5.76 nM

Continued by falling Ki, values first:

Row | Ki | SMILES
50 | 1.77 nM | Nc1nc(-c2cncc3c2OCC(=O)N3)cc2cc(NC(=O)[C@@H]3C[C@@H]3F)ncc12 (racemic)
51 | 1.73 nM | Cc1cc(N2CCC2=O)ncc1-c1cc2cc(NC(=O)[C@H]3C[C@@H]3c3cnn(C)c3)ncc2c(N)n1
52 | 1.42 nM | Cc1ccncc1-c1cc2cc(NC(=O)C3C[C@@H]3C(F)(F)F)ncc2c(N)n1 (some centres not stated)
53 | 1.4 nM | Cc1ccncc1-c1cc2cc(NC(=O)[C@@H]3C[C@H]3C(F)(F)F)ncc2c(N)n1 (racemic)
54 | 1.35 nM | Cc1ccncc1-c1cc2cc(NC(=O)C3CC34CC4)ncc2c(N)n1 (racemic)
55 | 1.17 nM | Cc1cc(C(=O)OCc2ccccc2)ncc1-c1cc2cc(NC(=O)[C@H]3C[C@@H]3c3cnn(C)c3)ncc2c(N)n1 (racemic)
56 | 1.1 nM | Cc1c(N)cncc1-c1cc2cc(NC(=O)[C@H]3C[C@@H]3C(F)(F)F)ncc2c(N)n1 (racemic)
57 | 1.1 nM | Cc1ccncc1-c1cc2cc(NC(=O)[C@H]3C[C@@H]3CO)ncc2c(N)n1 (racemic)
58 | 0.98 nM | CCOc1ccncc1-c1cc2cc(NC(=O)[C@H]3C[C@@H]3C#N)ncc2c(N)n1 (racemic)
59 | 0.972 nM | Cc1ccncc1-c1cc2cc(NC(=O)[C@H]3[C@@H]4CC(N5CCOCC5)C[C@@H]43)ncc2c(N)n1 (some centres not stated)
60 | 0.837 nM | Cc1ccncc1-c1cc2cc(NC(=O)[C@@H]3[C@@H](C)[C@H]3CC#N)ncc2c(N)n1
61 | 0.763 nM | Cc1ccncc1-c1cc2cc(NC(=O)[C@H]3[C@@H](C)[C@@H]3CC#N)ncc2c(N)n1
62 | 0.58 nM | Cc1ccncc1-c1cc2cc(NC(=O)[C@@H]3C[C@H]3c3cc[nH]n3)ncc2c(N)n1 (racemic)
63 | 0.57 nM | Cc1ccncc1-c1cc2cc(NC(=O)[C@H]3C[C@@H]3CC#N)ncc2c(N)n1 (racemic)
64 | 0.567 nM | Cc1ccncc1-c1cc2cc(Nc3cnn([C@H]4CN(C5COC5)CC[C@@H]4O)c3)ncc2c(N)n1 (racemic)
65 | 0.509 nM | COC(=O)c1cc(C)c(-c2cc3cc(NC(=O)[C@H]4C[C@@H]4c4cnn(C)c4)ncc3c(N)n2)cn1
66 | 0.501 nM | N#CC[C@H]1C[C@@H]1C(=O)Nc1cc2cc(-c3cnccc3CCO)nc(N)c2cn1 (racemic)
67 | 0.38 nM | Cc1ccncc1-c1cc2cc(NC(=O)[C@@H]3C[C@@H]3F)ncc2c(N)n1 (racemic)
68 | 0.23 nM | Cc1ccncc1-c1cc2cc(NC(=O)[C@@H]3C[C@H]3c3cnn(C)c3)ncc2c(N)n1 (racemic)
69 | 0.225 nM | C=Cc1c(-c2cnccc2C)nc(N)c2cnc(NC(=O)[C@H]3C[C@@H]3CC#N)cc12 (racemic)
70 | 0.19 nM | Cc1ccncc1-c1nc(N)c2cnc(NC(=O)[C@@H]3C[C@H]3c3cn[nH]c3)cc2c1F (racemic)
71 | 0.188 nM | Cc1ccncc1-c1cc2cc(NC(=O)[C@@H]3[C@H](C)[C@H]3CC#N)ncc2c(N)n1
72 | 0.154 nM | Nc1nc(-c2cncc3c2CCN3)cc2cc(NC(=O)[C@@H]3C[C@@H]3F)ncc12 (racemic)
73 | 0.15 nM | Cc1ccncc1-c1cc2cc(NC(=O)[C@@H]3C[C@H]3c3cnsc3)ncc2c(N)n1 (racemic)
74 | 0.135 nM | Nc1nc(-c2cncc3c2OCCN3)cc2cc(NC(=O)[C@@H]3C[C@@H]3F)ncc12 (racemic)
75 | 0.113 nM | Cc1ccc(F)cc1-c1cc2cc(NC(=O)[C@H]3C[C@@H]3c3cnn(C)c3)ncc2c(N)n1 (racemic)
76 | 0.051 nM | Cc1ccnc(-c2ccccc2)c1-c1cc2cc(NC(=O)[C@H]3C[C@@H]3CC#N)ncc2c(N)n1 (racemic)
77 | 0.047 nM | Cc1ccncc1-c1nc(N)c2cnc(NC(=O)[C@@H]3C[C@H]3c3cn[nH]c3)cc2c1Cl (racemic)
